Results published in ChEMBL document CHEMBL4190267, “Discovery of potent molecular chimera (CM358) to treat human metastatic melanoma” (Eur J Med Chem, 2017).
Activity calls are given as the source filed them. No cut-off for these calls is given here.

What was measured:
PC-3 [1] = assay: Growth inhibition of human PC3 cells preincubated for 6 hrs followed compound washout measured after 24 hrs by XTT assay; format: functional
MDA-MB-231 [2] = assay: Growth inhibition of human MDA-MB-231 cells preincubated for 6 hrs followed compound washout measured after 24 hrs by XTT assay; format: functional
WM 266-4 [3] = assay: Growth inhibition of human WM266.4 cells preincubated for 6 hrs followed compound washout measured after 24 hrs by XTT assay; format: functional
A 172 [4] = assay: Growth inhibition of human A172 cells preincubated for 6 hrs followed compound washout measured after 24 hrs by XTT assay; format: functional
NCI-H1299 [5] = assay: Growth inhibition of human NCI-H1299 cells preincubated for 6 hrs followed compound washout measured after 24 hrs by XTT assay; format: functional
PC-3 [6] = assay: Growth inhibition of human PC3 cells up to 25 uM cotreated with camptothecin measured after 24 hrs by XTT assay; format: functional, cell-based
MDA-MB-231 [7] = assay: Growth inhibition of human MDA-MB-231 cells up to 25 uM cotreated with camptothecin measured after 24 hrs by XTT assay; format: functional, cell-based
WM 266-4 [8] = assay: Growth inhibition of human WM266.4 cells up to 25 uM cotreated with camptothecin measured after 24 hrs by XTT assay; format: functional, cell-based
A 172 [9] = assay: Growth inhibition of human A172 cells up to 25 uM cotreated with camptothecin measured after 24 hrs by XTT assay; format: functional, cell-based
NCI-H1299 [10] = assay: Growth inhibition of human NCI-H1299 cells up to 25 uM cotreated with camptothecin measured after 24 hrs by XTT assay; format: functional, cell-based
PC-3 [11] = assay: Growth inhibition of human PC3 cells up to 25 uM cotreated with colchicine measured after 24 hrs by XTT assay; format: functional, cell-based
MDA-MB-231 [12] = assay: Growth inhibition of human MDA-MB-231 cells up to 25 uM cotreated with colchicine measured after 24 hrs by XTT assay; format: functional, cell-based
WM 266-4 [13] = assay: Growth inhibition of human WM266.4 cells up to 25 uM cotreated with colchicine measured after 24 hrs by XTT assay; format: functional, cell-based
A 172 [14] = assay: Growth inhibition of human A172 cells up to 25 uM cotreated with colchicine measured after 24 hrs by XTT assay; format: functional, cell-based
NCI-H1299 [15] = assay: Growth inhibition of human NCI-H1299 cells up to 25 uM cotreated with colchicine measured after 24 hrs by XTT assay; format: functional, cell-based
PC-3 [16] = assay: Growth inhibition of human PC3 cells preincubated for 6 hrs cotreated with amonafide followed compound washout measured after 24 hrs by XTT assay; format: functional
MDA-MB-231 [17] = assay: Growth inhibition of human MDA-MB-231 cells preincubated for 6 hrs cotreated with amonafide followed compound washout measured after 24 hrs by XTT assay; format: functional
WM 266-4 [18] = assay: Growth inhibition of human WM266.4 cells preincubated for 6 hrs cotreated with amonafide followed compound washout measured after 24 hrs by XTT assay; format: functional
A 172 [19] = assay: Growth inhibition of human A172 cells preincubated for 6 hrs cotreated with amonafide followed compound washout measured after 24 hrs by XTT assay; format: functional
NCI-H1299 [20] = assay: Growth inhibition of human NCI-H1299 cells preincubated for 6 hrs cotreated with amonafide followed compound washout measured after 24 hrs by XTT assay; format: functional
WM 266-4 [21] = assay: Cell cycle arrest in human WM266.4 cells assessed as accumulation at G1 phase at 10 uM cotreated with amonafide after 2 hrs by propidium iodide staining based flow cytometry (reference value: 59%); format: functional
WM 266-4 [22] = assay: Cell cycle arrest in human WM266.4 cells assessed as accumulation at S phase at 10 uM cotreated with amonafide after 2 hrs by propidium iodide staining based flow cytometry (reference value: 27%); format: functional
WM 266-4 [23] = assay: Cell cycle arrest in human WM266.4 cells assessed as accumulation at G2 phase at 10 uM cotreated with amonafide after 2 hrs by propidium iodide staining based flow cytometry (reference value: 11%); format: functional
WM 266-4 [24] = assay: Cell cycle arrest in human WM266.4 cells assessed as accumulation at G1 phase at 10 uM cotreated with amonafide after 8 hrs by propidium iodide staining based flow cytometry (reference value: 59%); format: functional
WM 266-4 [25] = assay: Cell cycle arrest in human WM266.4 cells assessed as accumulation at S phase at 10 uM cotreated with amonafide after 8 hrs by propidium iodide staining based flow cytometry (reference value: 27%); format: functional
WM 266-4 [26] = assay: Cell cycle arrest in human WM266.4 cells assessed as accumulation at G2 phase at 10 uM cotreated with amonafide after 8 hrs by propidium iodide staining based flow cytometry (reference value: 11%); format: functional
WM 266-4 [27] = assay: Cell cycle arrest in human WM266.4 cells assessed as accumulation at G1 phase at 10 uM cotreated with amonafide after 24 hrs by propidium iodide staining based flow cytometry (reference value: 59%); format: functional
WM 266-4 [28] = assay: Cell cycle arrest in human WM266.4 cells assessed as accumulation at S phase at 10 uM cotreated with amonafide after 24 hrs by propidium iodide staining based flow cytometry (reference value: 27%); format: functional
WM 266-4 [29] = assay: Cell cycle arrest in human WM266.4 cells assessed as accumulation at G2 phase at 10 uM cotreated with amonafide after 24 hrs by propidium iodide staining based flow cytometry (reference value: 11%); format: functional
WM 266-4 [30] = assay: Antitumor activity against human WM266.4 cells xenografted in athymic Foxn1 nu mouse assessed as tumor growth inhibition at 10 mg/kg, ip cotreated with amonafide administered once daily for 3 days followed by resting period of 4 days repeated for 4 weeks starting from 5 days post tumor inoculation; format: functional, organism-based
WM 266-4 [31] = assay: Antitumor activity against human WM266.4 cells xenografted in athymic Foxn1 nu mouse assessed as tumor growth inhibition at 10 mg/kg, ip cotreated with amonafide administered once daily for 7 days followed by resting period of 2 days repeated for 4 weeks starting from 5 days post tumor inoculation; format: functional, organism-based
Mus musculus [32] = assay: Toxicity in athymic Foxn1 nu mouse xenografted with human WM266.4 cells assessed as body weight loss at 10 mg/kg, ip cotreated with amonafide administered once daily for 7 days followed by resting period of 2 days repeated for 4 weeks starting from 5 days post tumor inoculation; format: organism-based; settings: in vivo
Mus musculus [33] = assay: Toxicity in athymic Foxn1 nu mouse xenografted with human WM266.4 cells assessed as body weight loss at 10 mg/kg, ip cotreated with amonafide administered once daily for 3 days followed by resting period of 4 days repeated for 4 weeks starting from 5 days post tumor inoculation; format: organism-based; settings: in vivo

Nc1ccn([C@@H]2O[C@H](COC(=O)CCCc3ccc(N(CCCl)CCCl)cc3)[C@@H](O)[C@@H]2O)c(=O)n1
growth inhibition (GI) (PC-3 [1]): inactive | growth inhibition (GI) (MDA-MB-231 [2]): inactive | growth inhibition (GI) (WM 266-4 [3]): inactive | growth inhibition (GI) (A 172 [4]): inactive | growth inhibition (GI) (NCI-H1299 [5]): inactive

COc1cc2c(c(OC)c1OC)-c1ccc(OC)c(=O)cc1[C@@H](NC(C)=O)CC2
growth inhibition (GI) (PC-3 [6]): Active | growth inhibition (GI) (MDA-MB-231 [7]): Active | growth inhibition (GI) (WM 266-4 [8]): Active | growth inhibition (GI) (A 172 [9]): Active | growth inhibition (GI) (NCI-H1299 [10]): Active

CC[C@@]1(O)C(=O)OCc2c1cc1n(c2=O)Cc2cc3ccccc3nc2-1
growth inhibition (GI) (PC-3 [11]): Active | growth inhibition (GI) (MDA-MB-231 [12]): Active | growth inhibition (GI) (WM 266-4 [13]): Active | growth inhibition (GI) (A 172 [14]): Active | growth inhibition (GI) (NCI-H1299 [15]): Active

O=C(O)CCCc1ccc(N(CCCl)CCCl)cc1 [CHLORAMBUCIL]
GI50 (PC-3 [1]): > 25 µM | GI50 (PC-3 [16]): > 25 µM | GI50 (MDA-MB-231 [2]): > 25 µM | GI50 (MDA-MB-231 [17]): > 25 µM | GI50 (WM 266-4 [3]): > 25 µM | GI50 (WM 266-4 [18]): > 25 µM | GI50 (A 172 [4]): > 25 µM | GI50 (A 172 [19]): > 25 µM | GI50 (NCI-H1299 [5]): > 25 µM | GI50 (NCI-H1299 [20]): > 25 µM | Activity (WM 266-4 [21]): 63.5% | Activity (WM 266-4 [22]): 26% | Activity (WM 266-4 [23]): 9.8% | Activity (WM 266-4 [24]): 29% | Activity (WM 266-4 [25]): 44.7% | Activity (WM 266-4 [26]): 23% | Activity (WM 266-4 [27]): 35% | Activity (WM 266-4 [28]): 39% | Activity (WM 266-4 [29]): 26% | TGI (WM 266-4 [30]): inactive | TGI (WM 266-4 [31]): inactive | Activity (Mus musculus [32]): Toxic | Activity (Mus musculus [33]): Toxic
